Assay [1] concerns AtmiR165a. Kind of assay: Expression of AtmiPEP165a (AtmiORF165a) in tobacco expressing AtmiR165a. The assay is classed as in vivo, Nicotiana benthamiana. Conditions: overexpression of AtmiORF165a. How it is done:
At present, AtmiPEP165a and AtmiPEP319a2, identified in Arabidopsis thaliana, have already been characterized.
The total RNA was extracted from roots of M. truncatula or from tobacco leaves using the extraction kit RNeasy Plant Mini Kit (Qiagen). The reverse transcription was performed using the reverse transcriptase SuperScript II (Invitrogen) starting from 500 ng of total RNA. Three repetitions (n=3) were carried out, each with two technical repetitions. Each experiment was repeated from two to three times. The amplifications by qPCR were carried out using a LightCycler 480 System thermocycler (Roche Diagnostics) by the method described in Lauressergues et al. (Plant J., 72(3): 512-22, 2012).
For the miPEPs 165a and 319a, the corresponding miORFs were cloned into pBIN19 by the method described in Combier et al. (Genes & Dev, 22: 1549-1559, 2008).
The composite plants having roots transformed with Agrobacterium rhizogenes were obtained by the method described in Boisson-Dernier et al. (Mol Plant-Microbe Interact, 18: 1269-1276, 2005). The transformed roots were verified and selected by observations of DsRED with a binocular fluorescence magnifier. The control roots correspond to roots transformed with A. rhizogenes not containing the pPEX-DsRED vector. Transformation of the tobacco leaves was carried out by the method described in Combier et al. (Genes & Dev, 22: 1549-1559, 2008).

Assay [2] has as its system AtmiR165a. The assay can be described thus: Northern blot of miR165a in A. thaliana roots treated with synthetic AtmiPEP165a. The assay is classed as in vivo, Arabidopsis thaliana. The following applies: 0.1 μM synthetic miPEP165a in water vs water.
Assay [3] has as its system AtmiR165a. The assay can be described thus: Relative expression of AtmiR165a and its target genes in A. thaliana roots treated with AtmiPEP165a. Conditions: AtmiPEP165a 0.01, 0.1, 1 or 10 μM vs water. The assay is classed as in vivo, Arabidopsis thaliana.
Assay [4] deals with Arabidopsis thaliana. The assay can be described thus: Root growth of Arabidopsis thaliana treated with AtmiPEP165a. The following applies: Arabidopsis thaliana treated with AtmiPEP165a vs control plant of the same age. The assay is classed as in vivo.
Another assay concerns HsmiR155. Kind of assay: HeLa cells transfected to overexpress HsmiPEP155, relative expression of Pre-miR155. Conditions: HeLa cells overexpressing HsmiPEP155. The assay is classed as cell-based, Homo sapiens. From the text:
The DNA fragments of interest (HsmiPEP155 and the mutated miPEP) were synthesized or amplified by PCR using specific primers, and then cloned using the enzymes XhoI and NotI into a pUAS plasmid permitting their overexpression by means of the GAL4 transcription factor, the expression of which is controlled by a constitutive strong promoter.
The different constructs were produced either by PCR amplification on genomic DNA of HeLa cells, or by RT-PCR on total RNAs of L428 human cells. The amplified PCR fragments are digested with the HindIII/EcoRI restriction enzymes and then cloned into the vector pcDNA3.1. The DH5a strain of Escherichia coli is electroporated and then cultured on a solid medium (2YT+agar+ampicillin). The plasmid DNA from different clones is then prepared and sequenced for verification. The constructs are then prepared using the QIAfilter Plasmid Midi kit (QIAGEN) and stored at −20° C.
The HeLa cells (established tumour line, ATCC CCL-2.2) are cultured in a 6-well plate in complete medium [(DMEM (1×)+Glutamax+4.5 g/L glucose without pyruvate+1× penicillin/streptomycin+1 mM Na-pyruvate+10% calf serum] and placed in an incubator at 37° C. and 5% CO2.
The cells are transfected when they are at 50% confluence. […]
10-15 μg of total RNAs is then analysed by Northern blot on 15% acrylamide gel [solution of acrylamide/40% bis-acrylamide, ratio 19:1], 7M urea in TBE 1×. […]

The test system of the next assay is AtmiR319a. The assay can be described thus: Overexpression of AtmiPEP319a1 in A. thaliana, qRT-PCR of AtmiR319a. The assay is classed as in vivo, Arabidopsis thaliana. Conditions: overexpression of AtmiPEP319a1 vs control plant. On the technique in general: Quantitative PCR measures a nucleic acid by following its amplification.
The subject of assay [5] is Arabidopsis thaliana. Kind of assay: Growth of Arabidopsis thaliana plants watered with synthetic miPEP. The assay is classed as in vivo. The following applies: A. thaliana; watered with 0.1 μM synthetic peptide, 3 weeks of growth, vs water. How it is done:
The photographs show two plants (top views and side views) after 3 weeks of growth: a control plant watered with water (A), and a plant watered with a composition of 0.1 μM of synthetic peptide corresponding to AtmiPEP164a (B).
The photographs show two plants (top views and side views) after 3 weeks of growth: a control plant watered with water (A), and a plant watered with a composition of 0.1 μM of synthetic peptide corresponding to AtmiPEP319a1 (B).

Consider 3 sequences from patent US12024543B2, “Micropeptides and use of same for modulating gene expression” (UNIVERSITE PAUL SABATIER TOULOUSE III, priority 2013, dated 2024).

Turning to “MRVKLFQLRGMLSGSRIL (listed as Arabidopsis thaliana) [AtmiPEP165a]”, the “accumulation of AtmiR165a” value with AtmiR165a [1] was “increase”. Further, the “accumulation of miR165a (Northern blot)” value with AtmiR165a [2] is reported as “increase”. In the assay with AtmiR165a [3], the “accumulation of AtmiR165a” value is “dose-dependent effect”; the “regulation of the target genes of miR165a (PHV, PHB and REV)” value was “negative regulation”. In the assay on Arabidopsis thaliana [4], the root growth phenotype result is reported as “greatly accelerated root growth”.

For the sequence “MEMALMVAQTRKGKSVV (listed as Homo sapiens) [HsmiPEP155]”, in the assay with HsmiR155, the “expression of HsmiR155 (relative expression of Pre-miR155)” value was “increases”.

For “MNIHTYHHLLFPSLVFHQSSDVPNALSLHIHTYEYIIVVIDPFRITLAFR (listed as Arabidopsis thaliana) [AtmiPEP319a1]”, the “accumulation of AtmiR319a” value in the assay with AtmiR319a is recorded as “increase”. Also, in the assay on Arabidopsis thaliana [5], the plant growth entry is given as “increases plant growth significantly”.
